Source: patent publication US9199984B2, “Inhibition of enzymes” (CHIESI FARMACEUTICI S.p.A., priority 2012, dated 2015)
pIC50: −log10 of the molar value. Structures can show the parent of a compound that is named as a salt.

These molecules were tested against T1, human neutrophil elastase (HNE) (Homo sapiens, UniProt P08246) (assay: HNE enzyme activity assay). Details: human leukocyte elastase, substrate MeOSuc-Ala-Ala-Pro-Val-AMC 100 μM, 25° C. for 30 minutes, fluorescence; read-out: HNE inhibition.
T1 construct: purchased Sigma E8140
T1 sequence (P08246 30-247 limits assumed): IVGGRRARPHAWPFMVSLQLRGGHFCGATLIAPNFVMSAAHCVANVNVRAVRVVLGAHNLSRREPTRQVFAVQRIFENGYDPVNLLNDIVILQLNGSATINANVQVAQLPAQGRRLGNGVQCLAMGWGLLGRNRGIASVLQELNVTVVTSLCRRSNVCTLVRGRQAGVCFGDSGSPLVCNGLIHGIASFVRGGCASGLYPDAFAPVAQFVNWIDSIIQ
Type: biochemical
Method: Compounds of the present invention were tested for potency in a human neutrophil elastase (HNE) enzyme activity assay.
Assays were performed in 96-well plates in a total assay volume of 100 μl. The final concentration of elastase enzyme (human leukocyte elastase, Sigma E8140) was 0.0036 units/well […]. The peptide substrate (MeOSuc-Ala-Ala-Pro-Val-AMC, Calbiochem #324740) was used at a final concentration of 100 μM. The final concentration of DMSO was 1% in the assay buffer (0.05M Tris.HCl, 0.1M NaCl, 0.1M CaCl2, 0.0005% brij-35, pH 7.5). The enzymatic reaction was started by addition of the enzyme and incubated at 25° C. for 30 minutes. After incubation, the reaction was stopped by addition of soybean trypsin inhibitor (Sigma T9003) at a final concentration of 50 μg/well. Fluorescence was measured using a Molecular Devices fluorescence plate reader using 380 nm excitation and 460 nm emission wavelengths.
A dose response to each compound was performed and the effect of compound in each experiment was expressed as a percentage inhibition of the control enzyme fluorescence. Dose response curves were plotted and compound potency (IC50) was determined. Compounds were tested in at least two separate experiments.

Row | SMILES | pIC50
1 | COCCOC(=O)Nc1nc2c(-c3cccc(C(F)(F)F)c3)c(C)c(-c3ccnn3-c3ccc(C#N)cc3)cn2n1 [Example 36, [6-[2-(4-Cyano-phenyl)-2H-pyrazol-3-yl]-7-methyl-8-(3-trifluoromethyl-phenyl)-[1,2,4]triazolo[1,5-a]pyridin-2-yl]-carbamic acid 2-methoxyethyl ester] | > 7.70
2 | Cc1c(-c2ccnn2-c2ccc(C#N)cc2)cn2nc(NCCCO)nc2c1-c1cccc(C(F)(F)F)c1 [Example 53, 4-{5-[2-(3-Hydroxy-propylamino)-7-methyl-8-(3-trifluoromethyl-phenyl)-[1,2,4]triazolo[1,5-a]pyridin-6-yl]-pyrazol-1-yl}-benzonitrile] | > 7.70
3 | Cc1c(-c2ccnn2-c2ccc(C#N)cc2)cn2nc(NC(=O)CCC(=O)O)nc2c1-c1cccc(C(F)(F)F)c1 [Example 55, N-[6-[2-(4-Cyano-phenyl)-2H-pyrazol-3-yl]-7-methyl-8-(3-trifluoromethyl-phenyl)-[1,2,4]triazolo[1,5-a]pyridin-2-yl]-succinamic acid] | > 7.70
4 | Cc1c(-c2ccnn2-c2ccc(C#N)cc2)cn2nc(N)nc2c1-c1cccc(C(F)(F)F)c1 [Example 1, 4-{5-[2-Amino-7-methyl-8-(3-trifluoromethyl-phenyl)-[1,2,4]triazolo[1,5-a]pyridin-6-yl]-pyrazol-1-yl}-benzonitrile] | 7.00 to 7.70
5 | Cc1c(-c2ccnn2-c2ccc(C#N)cc2)cn2nc(NC(=O)CN3CCS(=O)(=O)CC3)nc2c1-c1cccc(C(F)(F)F)c1 [Example 21, N-[6-[1-(4-Cyano-phenyl)-1H-pyrazol-5-yl]-7-methyl-8-(3-trifluoromethyl-phenyl)-[1,2,4]triazolo[1,5-a]pyridin-2-yl]-2-(1,1-dioxothiomorpholin-4-yl)-acetamide] | > 7.70
6 | CCOC(=O)Nc1nc2c(-c3cccc(C(F)(F)F)c3)c(C)c(-c3ccnn3-c3ccc(C#N)cc3)cn2n1 [Example 35, [6-[2-(4-Cyano-phenyl)-2H-pyrazol-3-yl]-7-methyl-8-(3-trifluoromethyl-phenyl)-[1,2,4]triazolo[1,5-a]pyridin-2-yl]-carbamic acid ethyl ester] | > 7.70
7 | CC(=O)Nc1nc2c(-c3cccc(C(F)(F)F)c3)c(C)c(-c3ccccc3-c3ccc(C#N)cc3)cn2n1 [Example 43] | > 7.70
8 | Cc1c(-c2ccnn2-c2ccc(C#N)cc2)cn2nc(NCCCCO)nc2c1-c1cccc(C(F)(F)F)c1 [Example 54, 4-{5-[2-(4-Hydroxy-butylamino)-7-methyl-8-(3-trifluoromethyl-phenyl)-[1,2,4]triazolo[1,5-a]pyridin-6-yl]-pyrazol-1-yl}-benzonitrile] | > 7.70
9 | Cc1c(-c2ccnn2-c2ccc(C#N)cc2)cn2nc(NC(=O)NCCC[N+](C)(C)C)nc2c1-c1cccc(C(F)(F)F)c1 [Example 38, (3-{3-[6-[2-(4-Cyano-phenyl)-2H-pyrazol-3-yl]-7-methyl-8-(3-trifluoromethyl-phenyl)-[1,2,4]triazolo[1,5-a]pyridin-2-yl]-ureido}-propyl)-trimethyl-ammonium formate] | > 7.70
10 | Cc1c(-c2ccnn2-c2ccc(C#N)cc2)cn2nc(NC(=O)NC3CCNCC3)nc2c1-c1cccc(C(F)(F)F)c1 [Example 50, 1-[6-[2-(4-Cyano-phenyl)-2H-pyrazol-3-yl]-7-methyl-8-(3-trifluoromethyl-phenyl)-[1,2,4]triazolo[1,5-a]pyridin-2-yl]-3-piperidin-4-yl-urea] | > 7.70
11 | CC(=O)Nc1nc2c(-c3cccc(OC(F)(F)F)c3)c(C)c(-c3ccnn3-c3ccc(C#N)cc3)cn2n1 [Example 44, N-[6-[2-(4-Cyano-phenyl)-2H-pyrazol-3-yl]-7-methyl-8-(3-trifluoromethoxy-phenyl)-[1,2,4]triazolo[1,5-a]pyridin-2-yl]-acetamide] | 7.00 to 7.70
